According to patent US20090280069A1, “PROGUANIL TO TREAT SKIN/MUCOSAL DISEASES” (Tolmar, Inc., priority 2008, published 2009):

What was measured:
[1] = system: Staphylococcus aureus ATCC 6538-P; assay: time kill assay, S. aureus; assay type: cell-based
Description: Staphylococcus aureus infections can lead to many skin diseases. Impetigo, furuncles, folliculitis, and carbuncles are all diseases caused by an infection of S. aureus. A microbiological study used a time kill assay with Staphylococcus aureus ATCC 6538-P as an indicator of the antibacterial activity of proguanil. […] A broth only control as well as a solvent 10% DGME control were added to the vials so that the total test volume was 15 ml. One hundred μl of a freshly grown suspension of the Staphylococcus aureus was then added at time zero so that the initial bacterial suspension was between 10^3 and 10^4 CFU/ml. All test and control suspensions were then incubated under aerobic conditions at 35° C. […] These plates were incubated aerobically at 35° C. for 1-3 days. Surviving colonies were then counted and the CFU/ml of test and control suspensions calculated and graphed.

[2] = system: Propionibacterium acnes ATCC 6919; assay: time kill assay, P. acnes; assay type: cell-based
Description: A microbiological study used a time kill assay with Propionibacterium acnes ATCC 6919 as an indicator of the antibacterial activity of proguanil. […] A broth only control as well as a solvent 10% DGME control were added to the vials so that the total test volume was 15 ml. One hundred μl of a freshly grown suspension of P. acnes 6919 was then added at time zero so that the initial bacterial suspension was between 10^7 and 10^8 CFU/ml. All test and control suspensions were then incubated under anaerobic conditions at 35° C. Aliquots of the test and control suspensions were removed at 24, 48, 72, and 96 hours and plated onto tryptic soy agar in triplicate using a spiral plater. These plates were incubated anaerobically at 35° C. for 3-5 days. Surviving P. acnes colonies were then counted and the CFU/ml of test and control suspensions calculated and graphed.

[3] = system: Gardnerella vaginalis ATCC 14018; assay: time kill assay, G. vaginalis; assay type: cell-based
Description: A time kill assay was used to test the effects of varying concentrations of proguanil on a culture of Gardnerella vaginalis ATCC 14018. An inoculum of G. vaginalis was prepared and inoculated in vials containing Brain Heart Infusion/Hemoglobin broth containing proguanil concentrations of 160, 80, 16, 8, 1.6 μg/ml. A growth control using phosphate buffered saline A (PBSA) plus a Brain Heart Infusion/Hemoglobin broth was used in place of the drug because it has no antimicrobial effect. DGME was the solvent used to dissolve the proguanil, accordingly, 10% DGME in broth was used as the solvent control. These inoculated broth solutions were then allowed to incubate for a period of 72 hours. Samples were taken at 0, 4, 24, 48 and 72 hours and spiral plated so the CFU/ml could be calculated.

[4] = system: Streptococcus equi subsp. equi ATCC 33398; assay: time kill assay, S. equi (Group C); assay type: cell-based
Description: (§1) Streptococcus equi (Group C) infections can lead to skin diseases such as erysipelas and cellulitis. A time kill assay was used to test the effects of varying concentrations of proguanil on a culture of Streptococcus equi subsp. equi ATCC 33398. An inoculum of S. equi was prepared and inoculated in vials containing Mueller Hinton II broth and proguanil concentrations of 160, 80, 16, 8, and 1.6 μg/ml. A growth control using phosphate buffered saline A (PBSA) plus Mueller Hinton II broth was used in place of the drug because it has no antimicrobial effect. DGME was the solvent used to dissolve the proguanil, accordingly, 10% DGME was used as the solvent control. These inoculated broth solutions were then allowed to incubate for a period of 72 hours. Samples were taken at 0, 4, 24, 48 and 72 hours and spiral plated so the CFU/ml could be calculated. In the experiments, the effects of proguanil on the S. equi were observed.

[5] = system: Streptococcus dysgalactiae subsp. equisimilis ATCC 6644; assay: time kill assay, S. dysgalactiae (Group G); assay type: cell-based
Description: as §1, with “Streptococcus dysgalactiae” for “Streptococcus equi”, “(Group G)” for “(Group C)”, “subsp. equisimilis” for “subsp. equi”, “ATCC 6644.” for “ATCC 33398.”, “S. dysgalactiae” for “S. equi”, “containing Muller” for “containing Mueller”

[6] = system: S. pyogenes ATCC 19615; assay: time kill assay, S. pyogenes (Group A); assay type: cell-based, Streptococcus pyogenes
Description: Streptococcus pyogenes (Group A) infections can lead to many skin disease syndromes. Impetigo, ecthyma, erysipelas, and cellulitis are all diseases caused by an infection of S. pyogenes. A microbiological study used a time kill assay with S. pyogenes ATCC 19615 as an indicator of the antibacterial activity of proguanil. […] A broth only control as well as a solvent 10% DGME control were added to the vials so that the total test volume was 15 ml. One hundred μl of a freshly grown suspension of the S. pyogenes was then added at time zero so that the initial bacterial suspension was between 10^7 and 10^8 CFU/ml. All test and control suspensions were then incubated under aerobic conditions at 35° C. Aliquots of the test and control suspensions were removed at 24, 48, and 72 hours and plated onto tryptic soy agar in triplicate using a spiral plater. These plates were incubated aerobically at 35° C. for 1-3 days. Surviving colonies were then counted and the CFU/ml of test and control suspensions calculated and graphed. The effects of proguanil on the S. pyogenes were observed.

[7] = 80 μg/ml, time zero to 72 hours
[8] = all other concentrations (16, 8, 1.6 μg/ml)
[9] = 160 μg/ml, T=24, 48 and 72 hours

CC(C)NC(=N)NC(=N)Nc1ccc(Cl)cc1 [Proguanil, N-(4-Chlorophenyl)-N′-(1-methylethyl)imidodicarbonimidic diamide]
inhibition of the bacteria ([1]; 160 μg/ml, all time points, similar to the DGME solvent control): slight inhibition
kill of S. aureus ([1]; 320 μg/ml, by the 24 hour time point and later through 72 hours): complete kill
kill of the bacteria ([1]; 1280, 640, and 480 μg/ml, by the 4 hour time point and later through 72 hours): complete kill
Relative Sensitivity (Compared to Other Strains Tested) ([1]; Staphylococcus aureus ATCC-6538P): Moderately
Approximate Inhibitory Level ([1]; Staphylococcus aureus ATCC-6538P, level at which partial or total inhibition of growth is observed): 320 µg/mL
bacteria eliminated ([2]; 160 μg/ml, by 24 hours): 97-100%
Relative Sensitivity (Compared to Other Strains Tested) ([2]; Propionibacterium acnes ATCC 6919): Sensitive
Approximate Inhibitory Level ([2]; Propionibacterium acnes ATCC 6919, level at which partial or total inhibition of growth is observed): 80 to 160 µg/mL
killing of P. acnes ([2]; between 0.16 and 16 μg/ml): not very effective
effect on the bacteria ([3]; 160 μg/ml and 80 μg/ml, 4 hours through 72 hours): killing effect
inhibition of growth ([3]; 16, 8, and 1.6 μg/ml): no or little inhibition of growth
CFU/ml ([3]; 160 and 80 μg/ml, T=24, 48 and 72 hours): 0 CFU/ml
Relative Sensitivity (Compared to Other Strains Tested) ([3]; Gardnerella vaginalis ATCC 14018): Very Sensitive
Approximate Inhibitory Level ([3]; Gardnerella vaginalis ATCC 14018, level at which partial or total inhibition of growth is observed): 80 µg/mL
effect on CFU/ml [4, 7]: only a slight increase in CFU/ml
effect on the bacteria ([4]; 160 μg/ml): strong inhibition and killing
CFU/ml ([4]; 160 μg/ml, T=48 and 72 hours): 0 CFU/ml
Relative Sensitivity (Compared to Other Strains Tested) ([4]; Streptococcus equi subspecies equi (Group C) ATCC 33398): Sensitive
Approximate Inhibitory Level ([4]; Streptococcus equi subspecies equi (Group C) ATCC 33398, level at which partial or total inhibition of growth is observed): 80 to 160 µg/mL
effect on CFU/ml [4, 8]: very similar and near the CFU/ml of the Mueller Hinton II broth control
effect on CFU/ml [5, 7]: only a slight increase in CFU/ml
effect on the bacteria ([5]; 160 μg/ml): strong inhibition and killing effect
CFU/ml [5, 9]: 0 CFU/ml
Relative Sensitivity (Compared to Other Strains Tested) ([5]; Streptococcus dysgalactiae (Group G) ATCC 6644): Sensitive
Approximate Inhibitory Level ([5]; Streptococcus dysgalactiae (Group G) ATCC 6644, level at which partial or total inhibition of growth is observed): 80 to 160 µg/mL
effect on CFU/ml [5, 8]: very similar and near the CFU/ml of the Mueller Hinton II broth control
effect on the bacteria ([6]; 1.6 μg/ml): roughly followed the trend of the Mueller Hinton II broth control
effect on the bacteria ([6]; 8 μg/ml and 16 μg/ml, compared to Mueller Hinton II control): may be slightly inhibitory
effect on the bacteria ([6]; 80 μg/ml, lesser effect than 160 and 100 μg/ml): good growth inhibition
effect on the bacteria ([6]; 100 μg/ml, over 72 hours, single assay): substantial effect
CFU/ml [6, 9]: 0 CFU/ml
effect on the bacteria ([6]; 160 μg/ml, lowest CFU/ml at all time points): greatest effect
Relative Sensitivity (Compared to Other Strains Tested) ([6]; Streptococcus pyrogenes (Group A) ATCC 19615): Sensitive
Approximate Inhibitory Level ([6]; Streptococcus pyrogenes (Group A) ATCC 19615, level at which partial or total inhibition of growth is observed): 80 to 160 µg/mL
